Laboratory results as given in US7829542B2, “Prophylactic and therapeutic treatment of infectious and other diseases with immunoeffector compounds” (Corixa Corporation, priority 2002, dated 2010).

Tests used:
Influenza A/HK/68 = experiment: Protection against lethal influenza challenge by prophylactic administration; assay type: in vivo, BALB/c mice; settings: 20 μg intranasally 48 hours prior to lethal intranasal challenge (5 LD50)
Procedure: This example provides experiments evaluating protection against a lethal challenge with influenza in cyclic AGP-treated mice. BALB/c mice (10 mice per group) were treated intranasally with 20 μg of the compounds of examples 1, 2 and 3, or with MPL, 48 hours prior to an lethal intranasal challenge of Influenza A/HK/68 (5 LD50). Protection was judged by survival, observations of clinical symptoms (ruffled fur, hunched posture and labored breathing), and prevention of weight loss for 21 days following the challenge.

[1] = system: L. monocytogenes 10403 serotype; experiment: Murine Listeria monocytogenes challenge model (induction of non-specific resistance); assay type: in vivo, mice; settings: 1 μg intravenously in 0.2% TEOA, i.v. challenge with ~10^5 L. monocytogenes two days later, spleen CFUs two days after challenge
Procedure: This example provides experiments evaluating the induction of non-specific resistance in the murine Listeria monocytogenes challenge model performed using the compounds prepared in examples 1, 2 and 3. Mice (5 per group) were treated intravenously with the 1 μg of a cyclic AGP or MPL solublized in 0.2% triethanolamine (TEOA). Two days later the mice were challenged intravenously with a ˜10^5 L. monocytogenes 10403 serotype (stock culture provided by Jory Baldridge, Washington State University, Pullman, Wash.). Two days after the challenge the mice were sacrificed and the number of colony forming units (CFUs) in the spleens of individual mice were determined by plating 10-fold serial dilutions of splenic homogenates on tryptic soy agar plates. The degree of protection afforded by a given AGP or MPL was calculated by subtracting the average number of bacteria per spleen (log 10 value) in the group of mice treated with a given compound, from the average number of bacteria per spleen (log 10 value) in a control group that was “sham” treated with vehicle (0.2% TEOA) prior to challenge with L. monocytogenes.

Row | Compound | protection compared with the vehicle control (in words) (Influenza A/HK/68) | survival rate (Influenza A/HK/68; followed for 21 days) [%] | degree of protection: average bacteria per spleen (log 10) in the vehicle control group minus that in the treated group [1] [log 10 units] | survival (in words) (Influenza A/HK/68; followed for 21 days)
1 | CCCCCCCCCCCC(=O)O[C@H](CCCCCCCCCCC)CC(=O)N[C@H]1[C@H](OC[C@@H]2CCCN2C(=O)C[C@@H](CCCCCCCCCCC)OC(=O)CCCCCCCCCCC)O[C@H](CO)[C@@H](OP(=O)(O)O)[C@@H]1OC(=O)C[C@@H](CCCCCCCCCCC)OC(=O)CCCCCCCCCCC.CCN(CC)CC [Example 2, N-[(R)-3-Dodecanoyloxytetradecanoyl]-(S)-2-pyrrolidinylmethyl 2-Deoxy-4-O-phosphono-2-[(R)-3-dodecanoyloxy-tetradecanoylamino]-3-O-[(R)-3-dodecanoyloxytetradecanoyl]-β-D-glucopyranoside Triethylammonium Salt] | enhanced protection | 40 | 0.7 | –
2 | CCCCCCCCCCC[C@H](CC(=O)N[C@H]1[C@H](OC[C@@H]2CCCN2C(=O)C[C@@H](CCCCCCCCCCC)OC(=O)CCCCCCCCC)O[C@H](CO)[C@@H](OP(=O)(O)O)[C@@H]1OC(=O)C[C@@H](CCCCCCCCCCC)OC(=O)CCCCCCCCC)OC(=O)CCCCCCCCC.CCN(CC)CC [Example 3, N-[(R)-3-Decanoyloxytetradecanoyl]-(S)-2-pyrrolidinylmethyl 2-Deoxy-4-O-phosphono-2-[(R)-3-Decanoyloxytetradecanoylamino]-3-O-[(R)-3-Decanoyloxytetradecanoyl]-β-D-glucopyranoside Triethylammonium Salt] | enhanced protection | 60 | ~0.9 | –
3 | N-[(R)-3-Tetradecanoyloxytetradecanoyl]-(S)-2-pyrrolidinylmethyl 2-Deoxy-4-O-phosphono-2-[(R)-3-tetradecanoyloxytetradecanoylamino]-3-O-[(R)-3-tetradecanoyloxytetradecanoyl]-β-D-glucopyranoside Triethylammonium Salt [Example 1] | – | – | 0.2 | No mice treated with the compound of example 1 survived
